These are literature values, as cited in patent US8603452B1, “Method of preventing biofouling using an anti-fouling bio-hydrogel composition” (University of South Florida, priority 2007, dated 2013).

Like-named read-outs stand apart in the source and are kept apart here.

One data set has as its system biofouling. Particulars: hydrogel coatings containing BAC, marine environment.

For benzalkonium chloride [BAC], the “prevention of the development of biofouling (duration)” value in the data set on biofouling was “up to 12 weeks”. Also, the diffusion coefficient (loss of BAC from hydrogel film, period from 12 to 50 hours, 13° C., freshwater) is 7.3×10^−8 cm^2 s^−1 and the diffusion coefficient (rate of loss of the residual BAC from hydrogel film, 15° C.) is recorded as 5.7×10^−10 cm^2 s^−1.
